Experiments:
GalNAc-T7 = target: T1, GalNAc-T7 (Homo sapiens, UniProt Q86SF2); assay: Inhibition of GalNAc-T7 activity with GalNAc2-3EA2 substrate; format: biochemical; details: 5 mM
T1 construct: made in house; host or cells: High Five insect cells (baculovirus)
T1 sequence (Q86SF2 30-657 limits assumed): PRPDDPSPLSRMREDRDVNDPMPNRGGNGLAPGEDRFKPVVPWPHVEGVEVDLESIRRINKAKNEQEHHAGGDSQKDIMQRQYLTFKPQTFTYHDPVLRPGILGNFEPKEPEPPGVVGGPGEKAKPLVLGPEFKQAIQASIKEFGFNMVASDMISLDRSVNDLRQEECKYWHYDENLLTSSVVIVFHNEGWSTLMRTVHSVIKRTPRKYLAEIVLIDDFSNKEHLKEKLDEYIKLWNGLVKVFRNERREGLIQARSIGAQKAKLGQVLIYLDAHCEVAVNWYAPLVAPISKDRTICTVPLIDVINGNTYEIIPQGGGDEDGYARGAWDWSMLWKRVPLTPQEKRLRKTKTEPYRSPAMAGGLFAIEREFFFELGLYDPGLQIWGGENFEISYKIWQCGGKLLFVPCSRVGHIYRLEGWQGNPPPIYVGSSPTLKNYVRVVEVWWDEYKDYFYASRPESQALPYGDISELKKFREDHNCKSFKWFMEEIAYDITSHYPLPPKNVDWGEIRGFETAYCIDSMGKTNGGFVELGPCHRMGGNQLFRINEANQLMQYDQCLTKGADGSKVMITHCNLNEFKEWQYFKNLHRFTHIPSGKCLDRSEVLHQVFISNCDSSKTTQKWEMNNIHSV
Experimental: Standard reaction mixtures (50 μl final volume) contained 25 mM cocadylate (pH 7.4), 10 mM MnCl2, 0.25% Triton X-100, 200 μM UDP-[^14C]-GalNAc (2,000 cpm/nmol) (Amersham), 200-500 μM acceptor peptides. Products were quantified by scintillation counting after chromatography on Dowex-1, octadecyl silica cartridges (Bakerbond), or HPLC (PC3.2/3 or mRPC C2/C18 SC2.1/10 Pharmacia, Smart System). […] Glycopeptides were purified on Supelclean LC-18 columns (1 ml, Supelco), and the number of GalNAc residues incorporated evaluated by MALDI-TOF mass spectrometry. The enzyme sources used were semipurified as previously described by successive sequential ion-exchange chromatographies on Amberlite (IRA95, Sigma) or DEAE Sephacel (Pharmacia), S-Sepharose Fast Flow (Pharmacia), and Mini-S™ (PC 3.2/3, Pharmacia) using the Smart System (Pharmacia) (28). Secreted GalNAc-T4 was obtained from a stably transfected CHO line (CHO/GalNA-T4/21A) (8) grown in roller bottles in HAMS F12 supplemented with 10% Fetal Bovine Serum. The experiments illustrated in FIG. 1 was performed with recombinant secreted GalNAc-T4 obtained from a stably transfected CHO line (8). Experiments illustrated in FIGS. 2 and 3 were performed with secreted GalNAc-T4 expressed in High Five cells grown in serum-free medium (8). Structural analysis of glycopeptides were performed by a combination of PFPA (pentafluoropropionic acid) hydrolysis and MALDI-TOF mass spectrometry as previously described (40). Secreted GalNAc-T7 was obtained from infected High Five™ cells grown in serum-free medium (Invitrogen) in upright roller bottles shaken 140 rpm in waterbaths at 27° C. GalNAc-T7 was not purified by Mini-S as the yields from cationic chromatography were low due to its low pI (6.4).
GalNAc-T7 activity was analysed with GalNAc glycosylated glycopeptides (represented by GalNAc2-3EA2 (7)) in reactions of 25 μl containing 2.5 nmol acceptor (glyco)peptide, 40 nmol UDP-GalNAc, and purified GalNAc-T7. […]

[1] = target: T2, secreted soluble GalNAc-T2 (sT2) (Homo sapiens, UniProt Q10471); assay: Direct binding ELISA to GalNAc-MUC1 glycopeptide, competitive inhibition, sT2
T2 construct: HIS-tagged secreted human GalNAc-T2 and -T4 were prepared from pAC-GP67-T2-sol and pAC-GP67-T4-sol cDNA; 6xHis (N); thrombin cleavage site (N); T7 tag (N); made in house; host or cells: High Five insect cells (baculovirus)
T2 sequence (Q10471 52-571 limits assumed): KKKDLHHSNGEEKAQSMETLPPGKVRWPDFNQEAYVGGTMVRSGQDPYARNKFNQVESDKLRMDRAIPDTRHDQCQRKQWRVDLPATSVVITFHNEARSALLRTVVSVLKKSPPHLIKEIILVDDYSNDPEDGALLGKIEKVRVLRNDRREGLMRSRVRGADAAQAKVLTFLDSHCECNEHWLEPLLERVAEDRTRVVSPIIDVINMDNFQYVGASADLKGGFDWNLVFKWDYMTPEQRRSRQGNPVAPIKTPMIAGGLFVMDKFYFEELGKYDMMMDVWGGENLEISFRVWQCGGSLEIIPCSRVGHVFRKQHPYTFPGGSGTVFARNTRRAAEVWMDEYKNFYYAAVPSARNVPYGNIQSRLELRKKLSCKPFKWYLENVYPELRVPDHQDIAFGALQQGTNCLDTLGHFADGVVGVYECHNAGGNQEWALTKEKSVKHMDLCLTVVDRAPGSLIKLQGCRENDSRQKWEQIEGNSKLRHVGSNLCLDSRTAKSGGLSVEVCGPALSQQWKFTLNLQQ
Experimental: Protein biotinylation was made as previously reported^62. The pH of 1 ml purified protein (0.3 mg/ml) in PBS was adjusted to pH 9 with 1 M NaOH and 40 μl N-hydroxy-succinimidobiotin (Sigma) dissolved in DMF (10 mg/ml) was added. The solution was mixed end-over-end for 2 hours at room temperature, and dialyzed three times against PBS and an equal volume of glycerol was added. The biotinylated proteins were stored at −20° C. in 50% glycerol until use.
Direct binding ELISA assay was developed as follows: Polystyrene microtiter plates (Maxisorb, Nunc, Denmark) were coated with peptides or enzymatically glycosylated glycopeptides in PBS overnight at 4° C. Plates were washed and blocked with 0.1% Tween20 and 0.2% BSA in PBS for 1 h at room temperature, followed by incubation with biotinylated proteins in PBS with 0.05% Tween20 for 2 h at room temperature. After four washes with PBS, plates were incubated with 1:2,000 dilution streptavidin-HRP (Sigma) in PBS for 30 min at room temperature and washed four times with PBS. Development was performed with 0.5 mg/ml o-phenylenediamine and 0.02% H2O2 at room temperature for 15 min, and reaction stopped by adding 100 μl/well of 0.5 N H2SO4. Competitive inhibition assays were done at end-point titers of GalNAc-transferase proteins with one hour preincubations with inhibitor.
In binding studies using lectins without biotinylation antibodies to the HIS-tag and the T7-tag, or in some experiments antibodies raised to GalNAc-T2 and -T4 enzymes were used to detect binding.

CC(=O)N[C@H]1[C@@H](OCc2ccccc2)O[C@H](CO)[C@H](O)[C@@H]1O [GalNAcα-benzyl]
Inhibition of GalNAc-T7 activity with GalNAc2-3EA2 (GalNAc-T7): significantly inhibited

CC(=O)N[C@H]1[C@@H](OCc2ccccc2)O[C@H](CO)[C@@H](O)[C@@H]1O [GlcNAcα-benzyl]
IC50 [1]: > 100 mM

Source: patent publication US7338932B2, “Methods of modulating functions of polypeptide GalNAc-transferases and of screening test substances to find agents herefor, pharmaceutical compositions comprising such agents and the use of such agents for preparing medicaments” (Glycozym APS, priority 2000, dated 2008)
